Experimental data as given in patent publication US7415358B2, “Molecular toxicology modeling” (Ocimum Biosolutions, Inc., priority 2001, dated 2008).
Read-outs that look alike come from different tables or passages of the source. Blank lines part the entries; values can stand above or below the compound they belong to.

Legend:
[1] = rats, began on day 3; cited from earlier work
[2] = rats, cited from earlier work
[3] = in vivo; cited from earlier work
[4] = rabbit, in vivo; cited from earlier work
[5] = male Wistar rats, daily doses within human therapeutic range; cited from earlier work
[6] = treatment 2 to 25 years; cited from earlier work
[7] = system: angiotensin converting enzyme (ACE); conditions: rats, 20, 25, and 30 days post-treatment; cited from earlier work
[8] = system: glomerular epithelial cell; conditions: rat, in vivo; cited from earlier work
[9] = rat, in vivo; cited from earlier work
[10] = rat, in vivo, 65 mg/kg; cited from earlier work
[11] = rats fed hydralazine, compared to control groups; cited from earlier work
[12] = four HIV-positive patients treated for toxoplasmosis; cited from earlier work
[13] = rats and mice, varying doses; cited from earlier work
[14] = CMV patients; cited from earlier work
rat hepatocytes = conditions: cited from earlier work
[15] = Clinical chemistry of the dosed rats; type: in vivo; conditions: rats given the high dosage
renal cortex = conditions: cited from earlier work
glutathione reductase = conditions: cited from earlier work

Compound: N.N.[Cl][Pt][Cl] [CISPLATIN, Pt(NH3)2(Cl)2]
- serum creatinine levels [1]: elevations in serum creatinine levels
- BUN ([2]; day 2, high-dose groups (10-15 mg/kg)): six or seven-fold elevation in BUN
- BUN ([2]; day 4, 5 mg/kg group): BUN elevation was noted

Compound: 9-[(2-hydroxyethyl) methyl] guanine [ACYCLOVIR]
- excretion [3]: most of it is excreted in the urine largely unchanged

Compound: CC1=C2C(=CO[C@H](C)[C@H]2C)C(O)=C(C(=O)O)C1=O [CITRININ]
- creatinine clearance, blood urea nitrogen, serum creatinine (renal failure) [4]: decreased creatinine clearance and increased blood urea nitrogen and serum-creatinine levels

Compound: LITHIUMCHLORIDE
- polyuria [5]: marked polyuria within three weeks
- patients with nephrogenic diabetes insipidus (NDI) [6]: ~90%
- patients with nephrotic proteinuria [6]: Approximately one fourth

Compound: COc1cccc2c1C(=O)c1c(O)c3c(c(O)c1C2=O)C[C@@](O)(C(=O)CO)C[C@@H]3O[C@H]1C[C@H](N)[C@H](O)[C@H](C)O1 [ADR]
- serum ACE levels [7]: serum ACE levels were significantly elevated

Compound: CN(C)c1ncnc2c1ncn2[C@@H]1O[C@H](CO)[C@@H](N)[C@H]1O [PAN, puromycin aminonucleoside]
- glomerular epithelial cell apoptosis [8]: induced glomerular epithelial cell apoptosis
- proteinuria [9]: led to proteinuria

Compound: N.N.O=C([O-])C1(C(=O)[O-])CCC1.[Pt+2] [CARBOPLATIN]
- CGT excretion [10]: increased approximately two-fold

Compound: NNc1nncc2ccccc12 [HYDRALAZINE]
- kidney copper concentrations [11]: kidney copper concentrations were increased

Compound: Nc1ccc(S(=O)(=O)Nc2ncccn2)cc1 [SULFADIAZINE]
- clinical renal adverse findings [12]: developed oliguria, abdominal pain, renal failure

Compound: NCCC(O)(P(=O)(O)O)P(=O)(O)O [PAMIDRONATE]
- body weight and creatinine clearance [13]: significant weight loss and a decrease in creatinine clearance

Compound: Nc1ccn(C[C@@H](CO)OCP(=O)(O)O)c(=O)n1 [CIDOFOVIR]
- patients with dose-dependent asymptomatic proteinuria [14]: Approximately 40%
- patients with elevated serum creatinine levels [14]: 25%

- concentrations of creatinine [15]: increased concentrations of creatinine
Compound: O=C(O)c1cc(-c2ccc(F)cc2F)ccc1O [DIFLUNISAL]
- LDH leakage (rat hepatocytes; 500 μM, compared to control): increase LDH leakage
- intracellular ATP concentrations (rat hepatocytes): decreased intracellular ATP concentrations

Compound: O=C(Cc1cccs1)N[C@@H]1C(=O)N2C(C(=O)[O-])=C(C[n+]3ccccc3)CS[C@H]12 [CEPHALORIDINE]
- reduced glutathione (GSH) in the renal cortex (renal cortex): depleted reduced glutathione (GSH)
- glutathione reductase activity (glutathione reductase): inhibited glutathione reductase
